The values that follow come from patent US6342245B1, “Compositions of lipid lowering agents” (Janssen Pharmaceutica N.V., priority 1997, dated 2002).

The assay concerns apolipoprotein B. Nature of the assay: Apolipoprotein B (apo B) inhibition test. The assay is classed as cell-based, human. The note with it: Hep G2-cells; concentration needed to reduce apoB secretion to 50% of the control. Here is the method: Cultured human liver cells (Hep G2-cells ) which synthesize and secrete low-density lipoproteins, were incubated overnight at 37° C. in a liquid medium containing radioactively labelled leucine. Thus radioactively labelled leucine was incorporated into the apolipoprotein B. The liquid medium was decanted and the apolipoprotein B was isolated by means of a double immunoprecipitation, i.e. first an apolipoprotein B-specific antibody (antibody1) was added to the liquid medium and subsequently a second antibody (antibody2) was added which binds specifically to the apoB-antibody1-complex. The thus formed apoB-antibody1-antibody2 complex precipitated and was isolated by centrifuge. Quantification of the amount of apolipoprotein B synthesized during the night resulted from measuring the radioactivity of the isolated complex. […] For each experiment the inhibition of apolipoprotein-B formation was expressed as [formula]
When more experiments were carried out for the same concentration, the median value of the inhibition calculated for these experiments was calculated. […]

Consider `CCC(C)n1ncn(-c2ccc(N3CCN(c4ccc(OC[C@H]5CO[C@](CSc6nncn6C)(c6ccc(Cl)cc6)O5)cc4)CC3)cc2)c1=O` (relative stereo) [Compound 40, cis-4-[4-[4-[4-[[2-(4-chlorophenyl)-2-[[(4-methyl-4H-1,2,4-triazol-3-yl)thio]methyl]-1,3-dioxolan-4-yl]methoxy]phenyl]-1-piperazinyl]phenyl]-2,4-dihydro-2-(1-methyl-propyl)-3H-1,2,4-triazol-3-one], for which 23 nM corresponded to half-maximal inhibition (IC50).
